Data published in PubChem BioAssay (NCI).
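Five concentrations, 48 hours, 96-well plates. GI50 = concentration required for 50% inhibition of growth. TGI: total growth inhibition.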

What was measured:
Assay in all cases: DTP human tumour cell line panel, 48 h
[1] = test system: DMS 273 small cell lung
[2] = test system: LXFL 529 NSCLC
[3] = test system: SNB-78 CNS
[4] = test system: XF 498 CNS
[5] = test system: DLD-1 colon
[6] = test system: HOP-18 NSCLC
[7] = test system: RXF-631 renal
[8] = test system: MDA-N
[9] = test system: T-47D breast

COCC(=O)CP(=O)(OC)OC
TGI [1]: > 100 µM
TGI [2]: > 100 µM
TGI [3]: > 100 µM
TGI [4]: > 100 µM

CCOC(=O)C1(Cc2ccccc2)CCCCCN1 (configuration not stated)
TGI [5]: > 100 µM
TGI [1]: > 100 µM
TGI [6]: > 100 µM
TGI [2]: > 100 µM
TGI [7]: > 100 µM
TGI [3]: > 100 µM

CCCCCC(=O)c1ccc2[nH]c3c(C)cc([N+](=O)[O-])c(C)c3c2c1
TGI [1]: > 100 µM
TGI [3]: > 100 µM
TGI [4]: > 100 µM

O=C1CSC(/C(=C\c2ccc(Cl)cc2)c2nc3ccccc3[nH]2)=N1
TGI [5]: 32.5 µM
TGI [1]: 37.6 µM
TGI [2]: 35.2 µM
TGI [8]: 37.6 µM
TGI [3]: > 100 µM
TGI [9]: 31.7 µM
TGI [4]: 3.01 µM

Cn1ncc2c(N)nc(N3CCCCC3)nc21
GI50 [9]: 3.75 µM
TGI [9]: 34.6 µM

C#CC1(O)C(COP(=O)(O)OC2CC(n3cc(F)c(=O)[nH]c3=O)OC2CO)OC(n2ccc(N)nc2=O)C1O (configuration not stated)
GI50 [9]: < 0.0157 µM
TGI [9]: > 51.7 µM

COc1cccc(C(=O)N2CCc3ccccc32)c1OC
TGI [1]: > 100 µM
TGI [6]: > 100 µM
TGI [2]: > 100 µM
TGI [7]: > 100 µM
TGI [3]: > 100 µM
TGI [4]: > 100 µM

CCCCCCCCCCN(CCCCCCCCCC)CC(=O)c1ccc2cc(Br)c3ccccc3c2c1
GI50 [9]: 2.44 µM
TGI [9]: 5.98 µM

Cc1c(C(=O)NCCO)[n+](=O)c2cc(Cl)ccc2n1[O-]
TGI [5]: > 100 µM
TGI [1]: > 100 µM
TGI [6]: > 100 µM
TGI [2]: > 100 µM
TGI [3]: > 100 µM

CCOc1ccc(/C=C(\Cl)c2ccc(OC)c(OC)c2)cc1
TGI [5]: > 100 µM
TGI [1]: > 100 µM
TGI [6]: > 100 µM
TGI [2]: > 100 µM
TGI [3]: > 100 µM
TGI [4]: > 100 µM

NNc1nc2ccccc2c(=O)n1NC(=O)C(=O)Nc1cccc(C(F)(F)F)c1
TGI [8]: > 100 µM
TGI [9]: > 100 µM

COC1OC(CO)C(O)C(O)C1Br (configuration not stated)
TGI [5]: > 100 µM
TGI [1]: > 100 µM
TGI [6]: > 100 µM
TGI [2]: > 100 µM
TGI [7]: > 100 µM
TGI [3]: > 100 µM
TGI [4]: > 100 µM

CN(CN1C(=O)C2Cc3ccccc3CN2C1=O)c1ccccn1 (configuration not stated)
TGI [5]: > 100 µM
TGI [1]: > 100 µM
TGI [2]: > 100 µM
TGI [4]: > 100 µM

COC(=O)c1sc(C(=O)OC)c2c1CSC2
TGI [5]: > 100 µM
TGI [1]: > 100 µM
TGI [6]: > 100 µM
TGI [2]: > 100 µM
TGI [8]: > 100 µM
TGI [7]: > 100 µM
TGI [3]: > 100 µM
TGI [4]: 81.6 µM

OCC1OC(n2ccc3c(NO)ncnc32)C(O)C1O (configuration not stated)
GI50 [9]: 0.169 µM
TGI [9]: 1.96 µM

CC(=O)O[C@H]1CC[C@@]2(C)C(=CC[C@H]3[C@@H]4C/C(=C\c5cccc(OCCN6CCOCC6)c5)[C@H](OC(C)=O)[C@@]4(C)CC[C@@H]32)C1
GI50 [9]: 4.18 µM
TGI [9]: 22.5 µM

O=C(Nc1ccc(F)cc1)c1c(NC(=O)C(F)(F)F)sc2c1CCCCC2
GI50 [9]: 1.62 µM
TGI [9]: 5.61 µM

CC(=O)OC1CC2C(C)(C)C(=O)C=C[C@]2(C)C2CCC3(C)C(c4ccoc4)C(=O)[C@H]4O[C@]43[C@]12C (some centres not stated)
TGI [5]: 28.3 µM
TGI [2]: > 100 µM
TGI [3]: > 100 µM

COC1CC2C=C(C)/C=C/C=C/C(=O)NC(c3ccccc3)C/C=C/CCC(O)CC(=O)C2=C1O (configuration not stated)
GI50 [9]: 0.264 µM
TGI [9]: 0.871 µM

O=C(NCCCNc1cc(-c2cn(-c3ccccc3)nc2-c2cccc(O)c2)ccn1)c1ccccc1
GI50 [9]: 1.57 µM
TGI [9]: 6.89 µM

CCOC(=O)C(=Cc1ccccc1[N+](=O)[O-])C(=O)OCC
GI50 [9]: 3.68 µM
TGI [9]: 17.5 µM

N=C(N=C(N)N)N1CCN(c2ccncc2)CC1
GI50 [9]: > 1000 µM
TGI [9]: > 1000 µM

C1CCN(c2nsc(N3CCCCC3)n2)CC1
TGI [5]: > 100 µM
TGI [1]: > 100 µM
TGI [6]: > 100 µM
TGI [2]: > 100 µM
TGI [7]: > 100 µM
TGI [3]: > 100 µM

CCOC(=O)c1[nH]c(-c2ccc(Cl)cc2)cc1-c1cccnc1
GI50 [9]: 0.612 µM
TGI [9]: > 100 µM

CC/C=C\C[C@H](O)C/C=C1/C(=O)C=C[C@@H]1C/C=C\CCCC(=O)N(C)C
GI50 [9]: 2.57 µM
TGI [9]: 11.8 µM

CN(C)C(N)=NC#N
TGI [5]: > 100 µM
TGI [1]: > 100 µM
TGI [6]: > 100 µM
TGI [2]: > 100 µM
TGI [7]: > 100 µM
TGI [3]: > 100 µM

C(CCC[Te][Te]CCCCCCOC1CCCCO1)CCOC1CCCCO1 (configuration not stated)
TGI [5]: 45.8 µM
TGI [6]: 51.4 µM
TGI [2]: 21.1 µM
TGI [3]: 38.1 µM
TGI [4]: 21.9 µM

Cc1cc(C)c(C[N+](C)(C)C)c(C)c1C
GI50 [9]: 0.292 µM
TGI [9]: 9.92 µM

C=C=C(CC)C(C(=O)OC)N(CC)CC (configuration not stated)
TGI [5]: > 100 µM
TGI [6]: > 100 µM
TGI [2]: > 100 µM
TGI [7]: > 100 µM
TGI [3]: > 100 µM
TGI [4]: > 100 µM

N=c1nnc(=O)c2c(s1)-n1ncc(C(=O)O)c1NN2
TGI [5]: > 100 µM
TGI [6]: > 100 µM
TGI [2]: > 100 µM

NNc1cccc(/C=C/c2ccccc2)cc1=O
GI50 [9]: 5.36 µM
TGI [9]: 92.5 µM

Cc1ccc(S(=O)(=O)NC(=O)NC23CC4CC(CC(F)(C4)C2)C3)cc1
TGI [5]: > 100 µM
TGI [1]: > 100 µM
TGI [2]: > 100 µM
TGI [3]: > 100 µM
TGI [4]: > 100 µM

O=C(O)/C(=C/c1c(O)ccc2ccccc12)c1csc(-c2nc(/C(=C\c3c(O)ccc4ccccc34)C(=O)O)cs2)n1
TGI [5]: 35.5 µM
TGI [2]: 29.8 µM
TGI [3]: 34.7 µM

CC(=O)O[C@H]1CC[C@@]2(C)C(=CC[C@H]3C4=CC=C(C(C)=O)[C@@]4(C)CCC32)C1 (some centres not stated)
TGI [5]: > 100 µM
TGI [1]: > 100 µM
TGI [6]: > 100 µM
TGI [2]: > 100 µM
TGI [3]: > 100 µM

Cc1nc2ccc(Nc3nc(NCCN4CCOCC4)nc(Nc4ccc(F)cc4)n3)cc2n1Cc1ccccc1
GI50 [9]: 2.66 µM
TGI [9]: 18.8 µM

C(=N\OCc1ccccc1)/c1ncccc1C1OCCO1
TGI [5]: > 100 µM
TGI [1]: > 100 µM
TGI [6]: > 100 µM
TGI [2]: > 100 µM
TGI [3]: > 100 µM

OCCSCc1ccccc1
TGI [8]: > 100 µM
TGI [9]: > 100 µM
